Data from the supplement of paper PMC10307832.

Key:
Assay in all cases: relative viability (nuclei count vs DMSO), 5 days (fraction); higher = more cells survive
[1] = compound: O=C(C[C@H]1NCCC[C@@H]1O)Cn1cnc2cc(Br)c(Cl)cc2c1=O (racemic) [Halofuginone] + CC(=O)c1c(C)c2cnc(Nc3ccc(N4CCNCC4)cn3)nc2n(C2CCCC2)c1=O [Palbociclib] (partner 0.5 µM)
In short: (§1)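 For relative viability, nuclei counts in treated wells were divided by those in vehicle wells. Lung cancer cell lines had been pin-tool dosed in 1536-well plates the day after seeding and cultured for 5 days, then fixed and stained in one step (final 0.05% Triton X-100, 1% formaldehyde, 1 ug/ml Hoechst) and imaged at 4×. Doses were one drug alone or a fixed anchor-drug dose plus five library-drug doses (not always all listed) in √10 steps, and values are duplicate-plate medians.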

Decitabine + Crizotinib = compound: Nc1ncn([C@H]2C[C@H](O)[C@@H](CO)O2)c(=O)n1 [Decitabine] + C[C@@H](Oc1cc(-c2cnn(C3CCNCC3)c2)cnc1N)c1c(Cl)ccc(F)c1Cl [Crizotinib] (partner 1 µM)
In short: as §1

Decitabine + Pictilisib = compound: Nc1ncn([C@H]2C[C@H](O)[C@@H](CO)O2)c(=O)n1 [Decitabine] + CS(=O)(=O)N1CCN(Cc2cc3nc(-c4cccc5[nH]ncc45)nc(N4CCOCC4)c3s2)CC1 [Pictilisib] (partner 1 µM)
In short: as §1

Cediranib + Palbociclib = compound: COc1cc2c(Oc3ccc4[nH]c(C)cc4c3F)ncnc2cc1OCCCN1CCCC1 [Cediranib] + CC(=O)c1c(C)c2cnc(Nc3ccc(N4CCNCC4)cn3)nc2n(C2CCCC2)c1=O [Palbociclib] (partner 0.5 µM)
In short: as §1

Cell Line	relative viability ([1]; first compound 0.001 µM)	relative viability ([1]; first compound 0.003162 µM)	relative viability ([1]; first compound 0.01 µM)	relative viability ([1]; first compound 0.03162 µM)	relative viability ([1]; first compound 0.1 µM)	relative viability (Decitabine + Crizotinib; first compound 0.04 µM)	relative viability (Decitabine + Crizotinib; first compound 0.1265 µM)	relative viability (Decitabine + Crizotinib; first compound 0.4 µM)	relative viability (Decitabine + Crizotinib; first compound 1.265 µM)	relative viability (Decitabine + Crizotinib; first compound 4 µM)	relative viability (Decitabine + Pictilisib; first compound 0.04 µM)	relative viability (Decitabine + Pictilisib; first compound 0.1265 µM)	relative viability (Decitabine + Pictilisib; first compound 0.4 µM)	relative viability (Decitabine + Pictilisib; first compound 1.265 µM)	relative viability (Decitabine + Pictilisib; first compound 4 µM)	relative viability (Cediranib + Palbociclib; first compound 0.04 µM)	relative viability (Cediranib + Palbociclib; first compound 0.4 µM)	relative viability (Cediranib + Palbociclib; first compound 1.265 µM)	relative viability (Cediranib + Palbociclib; first compound 4 µM)	relative viability (Cediranib + Palbociclib; first compound 0.1265 µM)
HCC-78	0.516	0.519	0.497	0.488	0.551	0.354	0.382	0.395	0.272	0.255	0.233	0.241	0.229	0.21	0.228	0.55	0.507	0.53	0.592	
HCC-366	0.363	0.472	0.351	0.358	0.14	0.237	0.362	0.121	0.102	0.0419	0.221	0.221	0.229	0.11	0.0886	0.451	0.366	0.411	0.262	0.404
HCC-827	0.485	0.459	0.491	0.56	0.478		0.396	0.355	0.262	0.272	0.511	0.63	0.618	0.505	0.62	0.559	0.433	0.629	0.424	0.54
HOP-62	0.435	0.427	0.426	0.375	0.227	0.421	0.318	0.149	0.117	0.133	0.668	0.585	0.239	0.159	0.162	0.482	0.409	0.426	0.486	0.517
